# Experimental data taken from patent US11180494B2, “Substituted amino acids as integrin inhibitors” (Pliant Therapeutics, Inc., priority 2018, dated 2021).
# Target: human integrin αvβ6 (Homo sapiens (Human), UniProt P06756+P18564)
# Assay: Proximity-based integrin receptor binding assay (ALPHASCREEN) for inhibitor potency
# Details: inhibition of binding of TGF-b1 LAP to human integrin αvβ6; values given in ranges
# Method in brief: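 AlphaScreen: integrin, compound, TGF-b1 LAP, biotinylated anti-LAP antibody and acceptor beads incubated 2 hours, then streptavidin donor beads 30 minutes, at room temperature in 50 mM Tris-HCl pH 7.5, 0.1% BSA, 1 mM CaCl2 and MgCl2. Excitation 680 nm, emission 520-620 nm; IC50 by four-parameter logistic fit.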
# Sequence of human integrin αvβ6 (P06756 31-992): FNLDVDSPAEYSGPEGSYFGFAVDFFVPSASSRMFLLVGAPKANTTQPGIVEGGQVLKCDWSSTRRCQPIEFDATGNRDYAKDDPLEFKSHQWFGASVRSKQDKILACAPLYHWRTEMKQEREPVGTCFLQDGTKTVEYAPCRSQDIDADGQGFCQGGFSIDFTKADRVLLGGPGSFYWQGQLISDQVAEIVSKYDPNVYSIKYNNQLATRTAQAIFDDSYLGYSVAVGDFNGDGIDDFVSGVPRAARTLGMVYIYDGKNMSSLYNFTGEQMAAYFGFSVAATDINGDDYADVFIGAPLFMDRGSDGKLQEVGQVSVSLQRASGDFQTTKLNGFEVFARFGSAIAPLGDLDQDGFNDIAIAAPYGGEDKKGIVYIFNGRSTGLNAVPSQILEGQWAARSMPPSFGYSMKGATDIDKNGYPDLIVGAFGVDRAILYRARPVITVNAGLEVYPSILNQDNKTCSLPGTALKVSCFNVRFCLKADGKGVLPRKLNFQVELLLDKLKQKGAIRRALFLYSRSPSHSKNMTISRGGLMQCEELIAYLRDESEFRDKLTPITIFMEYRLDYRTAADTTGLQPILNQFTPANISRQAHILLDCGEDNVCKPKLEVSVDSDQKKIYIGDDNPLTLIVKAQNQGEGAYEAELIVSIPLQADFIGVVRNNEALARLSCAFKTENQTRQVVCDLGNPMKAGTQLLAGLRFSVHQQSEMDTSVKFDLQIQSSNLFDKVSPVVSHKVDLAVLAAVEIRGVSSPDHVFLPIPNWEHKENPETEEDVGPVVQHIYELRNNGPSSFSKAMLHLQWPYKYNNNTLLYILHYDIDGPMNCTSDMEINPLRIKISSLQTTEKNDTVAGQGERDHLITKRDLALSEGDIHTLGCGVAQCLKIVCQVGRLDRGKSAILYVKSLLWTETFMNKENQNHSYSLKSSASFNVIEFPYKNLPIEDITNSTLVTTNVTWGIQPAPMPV
# Sequence of human integrin αvβ6 (P18564 22-707): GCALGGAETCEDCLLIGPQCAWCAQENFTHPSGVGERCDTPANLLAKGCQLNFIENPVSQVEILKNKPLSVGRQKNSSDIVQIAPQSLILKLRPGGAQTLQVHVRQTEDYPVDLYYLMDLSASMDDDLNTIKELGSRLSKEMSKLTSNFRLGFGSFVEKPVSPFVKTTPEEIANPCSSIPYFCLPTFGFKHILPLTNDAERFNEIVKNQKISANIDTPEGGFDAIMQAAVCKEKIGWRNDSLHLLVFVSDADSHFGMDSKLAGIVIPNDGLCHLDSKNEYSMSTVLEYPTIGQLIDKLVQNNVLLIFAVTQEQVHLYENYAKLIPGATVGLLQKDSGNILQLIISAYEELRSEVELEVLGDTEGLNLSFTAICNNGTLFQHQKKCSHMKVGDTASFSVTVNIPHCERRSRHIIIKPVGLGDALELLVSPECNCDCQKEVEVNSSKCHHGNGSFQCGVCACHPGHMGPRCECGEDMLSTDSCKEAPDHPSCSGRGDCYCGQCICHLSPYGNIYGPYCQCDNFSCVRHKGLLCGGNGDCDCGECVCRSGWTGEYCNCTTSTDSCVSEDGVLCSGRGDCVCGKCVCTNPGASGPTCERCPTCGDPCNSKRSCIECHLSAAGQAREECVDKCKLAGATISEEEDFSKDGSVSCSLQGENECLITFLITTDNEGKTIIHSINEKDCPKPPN
row,SMILES,IC50 [nM]
1,"O=C(O)C(CCO[C@H]1C[C@H](CCc2ccc3c(n2)NCCC3)C1)NC(=O)[C@H](CO)c1ccccc1 (stereo partly drawn) [Compound 46, N—((S)-3-hydroxy-2-phenylpropanoyl)-O-(trans-3-(2-(5,6,7,8-tetrahydro-1,8-naphthyridin-2-yl)ethyl)cyclobutyl)homoserine]",250 to 1000
2,"O=C(NC(CCO[C@H]1C[C@H](CCc2ccc3c(n2)NCCC3)C1)C(=O)O)c1ccc(C2CC2)cc1 (stereo partly drawn) [Compound 57, N-(4-cyclopropylbenzoyl)-O-(trans-3-(2-(5,6,7,8-tetrahydro-, 8-naphthyridin-2-yl)ethyl)cyclobutyl)homoserine]",250 to 1000
3,"O=C(NC(CCO[C@H]1C[C@H](CCc2ccc3c(n2)NCCC3)C1)C(=O)O)C1CCCC(F)(F)C1 (stereo partly drawn) [Compound 161, N-(3,3-difluorocyclohexane-1-carbonyl)-O-(trans-3-(2-(5,6,7,8-tetrahydro-1,8-naphthyridin-2-yl)ethyl)cyclobutyl)homoserine]",< 50
4,"CCCCC(=O)NC(CCOCCCCc1ccc2c(n1)NCCC2)C(=O)O (stereo not shown) [Compound 8, N-pentanoyl-O-(4-(5,6,7,8-tetrahydro-1,8-naphthyridin-2-yl)butyl)homoserine]",250 to 1000
5,"CC(C)(C)OC(=O)N1CC[C@H](OC(=O)N[C@@H](CCO[C@H]2C[C@H](CCc3ccc4c(n3)NCCC4)C2)C(=O)O)C1 [Compound 133, N—((((S)-1-(tert-butoxycarbonyl)pyrrolidin-3-yl)oxy)carbonyl)-O-(trans-3-(2-(5,6,7,8-tetrahydro-1,8-naphthyridin-2-yl)ethyl)cyclobutyl)homoserine]",< 50
6,"CC1(OC(=O)N[C@@H](CCO[C@H]2C[C@H](CCc3ccc4c(n3)NCCC4)C2)C(=O)O)CCC1 [Compound 114, N-((1-methylcyclobutoxy)carbonyl)-O-(trans-3-(2-(5,6,7,8-tetrahydro-1,8-naphthyridin-2-yl)ethyl)cyclobutyl)homoserine]",< 50
7,"O=C(O)[C@H](CCO[C@H]1C[C@@H](CCc2ccc3c(n2)NCCC3)C1)NC(=O)C1(C(F)(F)F)CCOCC1 [Compound 183, O-(cis-3-(2-(5,6,7,8-tetrahydro-1,8-naphthyridin-2-yl)ethyl)cyclobutyl)-N-(4-(trifluoromethyl)tetrahydro-2H-pyran-4-carbonyl)homoserine]",50 to 250
8,"O=C(NC(CCOCCCCc1ccc2c(n1)NCCC2)C(=O)O)c1c(Cl)cncc1Cl (stereo not shown) [Compound 189, N-(3,5-dichloroisonicotinoyl)-O-(4-(5,6,7,8-tetrahydro-1,8-naphthyridin-2-yl)butyl)homoserine]",50 to 250

# The remaining lines, values ahead:
row,IC50 [nM],SMILES
1,< 50,"CC(C)N(C(=O)N[C@@H](CCO[C@H]1C[C@H](CCc2ccc3c(n2)NCCC3)C1)C(=O)O)C(C)C [Compound 121, N-(diisopropylcarbamoyl)-O-(trans-3-(2-(5,6,7,8-tetrahydro-1,8-naphthyridin-2-yl)ethyl)cyclobutyl)homoserine]"
2,50 to 250,"Cn1cc2ccc(C(=O)N[C@@H](CCO[C@H]3C[C@H](CCc4ccc5c(n4)NCCC5)C3)C(=O)O)cc2n1 [Compound 39, N-(2-methyl-2H-indazole-6-carbonyl)-O-(trans-3-(2-(5,6,7,8-tetrahydro-1,8-naphthyridin-2-yl)ethyl)cyclobutyl)homoserine]"
3,50 to 250,"CC1(OC(=O)N[C@@H](CCO[C@H]2C[C@H](CCc3ccc4c(n3)NCCC4)C2)C(=O)O)CNC1 [Compound 130, N-(((3-methylazetidin-3-yl)oxy)carbonyl)-O-(trans-3-(2-(5,6,7,8-tetrahydro-1,8-naphthyridin-2-yl)ethyl)cyclobutyl)homoserine]"
4,50 to 250,"CC(C)(C)c1cc(N[C@@H](CCO[C@H]2C[C@H](CCc3ccc4c(n3)NCCC4)C2)C(=O)O)ncn1 [Example 229, N-(6-(tert-butyl)pyrimidin-4-yl)-O-(trans-3-(2-(5,6,7,8-tetrahydro-1,8-naphthyridin-2-yl)ethyl)cyclobutyl)homoserine]"
5,< 50,Cc1cc(F)cc(C)c1C(=O)NC(CCOC1CC(CCc2ccc3c(n2)NCCC3)C1)C(=O)O (stereo not shown) [Compound 175]
